# Experimental data published in patent US4772587A, “Dipeptide derivative of fatty acid” (Suntory Limited, priority 1985, dated 1988).
# Non-standard residues stand in square brackets, D forms with d. Residues, ends and D or L forms follow the SMILES beside them. *: point of attachment. Oleoyl = CCCCCCCC/C=C\CCCCCCCC(=O)*; Stearoyl = CCCCCCCCCCCCCCCCCC(=O)*; Palmitoyl = CCCCCCCCCCCCCCCC(=O)*; Nle = CCCC[CH](N)C(=O)O; Cbz = O=C(OCc1ccccc1)*
# How the values were obtained:
# prolyl endopeptidase = prolyl endopeptidase (Elizabethkingia meningoseptica, UniProt P27028); experiment: Measurement of anti-prolyl endopeptidase activity (decomposition of Z-glycyl-proline-β-naphthylamide); type: biochemical; details: substrate Z-glycyl-proline-β-naphthylamide, phosphate buffer pH 7.0
# Sequence of prolyl endopeptidase (P27028 21-705): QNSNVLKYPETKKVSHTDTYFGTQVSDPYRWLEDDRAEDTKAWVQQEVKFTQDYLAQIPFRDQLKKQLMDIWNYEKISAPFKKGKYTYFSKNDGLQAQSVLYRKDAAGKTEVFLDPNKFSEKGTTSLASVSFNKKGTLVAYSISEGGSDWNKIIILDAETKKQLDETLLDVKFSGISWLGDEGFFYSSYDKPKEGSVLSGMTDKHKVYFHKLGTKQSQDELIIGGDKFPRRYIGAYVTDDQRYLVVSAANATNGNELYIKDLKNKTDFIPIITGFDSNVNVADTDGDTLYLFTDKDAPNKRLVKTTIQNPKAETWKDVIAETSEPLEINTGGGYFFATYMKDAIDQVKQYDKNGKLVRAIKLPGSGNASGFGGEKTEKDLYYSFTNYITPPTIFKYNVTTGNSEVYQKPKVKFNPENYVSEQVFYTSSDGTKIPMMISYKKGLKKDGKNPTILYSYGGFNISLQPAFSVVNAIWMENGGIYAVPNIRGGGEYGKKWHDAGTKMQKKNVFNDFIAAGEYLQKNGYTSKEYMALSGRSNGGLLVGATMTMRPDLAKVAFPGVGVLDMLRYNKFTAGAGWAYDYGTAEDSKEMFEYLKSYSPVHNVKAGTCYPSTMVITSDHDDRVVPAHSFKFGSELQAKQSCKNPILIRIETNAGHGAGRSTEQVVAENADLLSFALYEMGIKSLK
# Procedure: The method of Yoshimoto and Tsuru (T. Yoshimoto and D. Tsuru, Agr. Biol. Chem. 42, 2417, 1978) was used to measure the anti-prolyl endopeptidase activities of several compounds of the present invention. A mixture of 0.0025M Z-glycyl-proline-β-naphthylamide (0.25 ml), 0.1M phosphate buffer (pH, 7.0; 0.99 ml) and a solution of a particular anti-prolyl endopeptidase compound (0.01 ml) was incubated in a test tube at 37° C. for 3 minutes. Thereafter, 0.1 ml of a solution of prolyl endopeptidase (0.2 U/ml) was added and the mixture was heated at 35° C. for 10 minutes. After the reaction, 2.0 ml of Triton X-100 in 1M acetate buffer (pH, 4.0) was added to the reaction mixture until the final concentration of the surfactant was 10%. The mixture was left at room temperature for 15 minutes and the absorbance (a) at 410 nm was measured.
# A sample for blind test was prepared by using the buffer instead of the anti-prolyl endopeptidase compound and its absorbance (b) was also measured. The percent inhibition of prolyl endopeptidase was calculated by the formula: ((b-a)/b)×100, and the amount of a specific compound to achieve 50% inhibition (IC50) was determined.
# [1] = test system: experimental amnesia caused in rats by scopolamine; experiment: Preventive effect against experimental amnesia caused in rats by scopolamine (passive avoidance learning); type: in vivo, Wister male rats; details: for Avoidance time 48 hrs. later: sample 1 mg/kg i.p., scopolamine 3 mg/kg i.p. after learning
# [2] = test system: experimental amnesia caused in rats by scopolamine; experiment: as above; type: in vivo, Wister male rats; details: for Avoidance time 24 hrs. later / Avoidance time 48 hrs. later / No. of amnesic rats/No. of rats tested / Percentage amnesia: scopolamine 3 mg/kg i.p. after learning
# Procedure: Several of the anti-prolyl endopeptidase compounds of the present invention were checked for their ability to prevent the inhibition of long-term memory fixation by scopolamine. Solutions of physiological saline (0.3 ml) that contained selected compounds of the present inventions in varying amounts ([…], 0.25 mg, 0.1 mg, 0.025 mg and 0.010 mg/kg) were administered intraperitoneally once a day to Wister male rats (100-120 g). One hour after the administration, electric shocks (1.7 mA) were applied to the rats so that they would acquire passive avoidance learning. Immediately thereafter, scopolamine was administered intraperitoneally to each rat in an amount of 3 mg per kg of body weight.
# The result of the test was assessed both 24 hours and 48 hours after the administration of scopolamine. The number of amnesic rats and of sound rats was counted for each of the control group (rats to which the test compounds had not been administered but to which only scopolamine and physiological saline had been administered intraperitoneally and the treated group (rats to which both the test compound and scopolamine had been administered). The results are shown in Table 3.
# [3] = administered orally (so in the source) in an amount of 0.025 mg/kg
# [4] = administered orally (so in the source) in an amount of 0.1 mg/kg
# [5] = dose of 0.01 mg/kg (orally as printed)
# [6] = administered orally (so in the source) in an amount of 1 mg/kg
Compound,IC50 (amount of compound to achieve 50% inhibition) (prolyl endopeptidase) [ng/test tube],"anti-amnesic action (in words) [1, 3]","anti-amnesic action (in words) [1, 4]",Avoidance time 24 hrs. later ([2]; sample 25 μg/kg i.p.) [s],Avoidance time 48 hrs. later ([2]; sample 25 μg/kg i.p.) [s],No. of amnesic rats/No. of rats tested ([2]; sample 25 μg/kg i.p.),Percentage amnesia ([2]; sample 25 μg/kg i.p.) [%],Avoidance time 24 hrs. later ([2]; sample 100 μg/kg i.p.) [s],Avoidance time 48 hrs. later ([2]; sample 100 μg/kg i.p.) [s],No. of amnesic rats/No. of rats tested ([2]; sample 100 μg/kg i.p.),Percentage amnesia ([2]; sample 100 μg/kg i.p.) [%],other results
"CCCCCCCC/C=C\CCCCCCCC(=O)NC(C)C(=O)N1CCCC1C=O (stereo not shown) [SUAM 1092, oleoyl-Ala-pro-CHO]",12.0,–,–,–,–,–,–,–,–,–,–,–
linoleoyl-Leu-Pro-CHO [SUAM 1157],0.6,–,–,–,–,–,–,–,–,–,–,–
"CCCCCCCC/C=C\CCCCCCCC(=O)NC(CC(C)C)C(=O)NC(CC(C)C)C(=O)N1CCCC1C=O (stereo not drawn) [SUAM 1158, oleoyl-Leu-Leu-Pro-CHO] (Oleoyl-Leu-Leu-Pro-aldehyde; configuration not given here)",80.0,excellent effect,strong anti-amnesic action,300,300,0/10,0,300,300,0/10,0,–
"CCCCCCCC/C=C\CCCCCCCC(=O)N1CCCC1C(=O)N1CCCC1C=O (stereo not drawn) [SUAM 1215, Oleoyl-Pro-Pro-CHO] (Oleoyl-Pro-Pro-aldehyde; configuration not given here)",0.3,strong anti-amnesic action,–,300,300,0/10,0,–,–,–,–,"anti-amnesic action (in words) [2, 5]: strong anti-amnesic action; Avoidance time 24 hrs. later ([2]; sample 10 μg/kg i.p.): 300 s; Avoidance time 48 hrs. later ([2]; sample 10 μg/kg i.p.): 300 s; No. of amnesic rats/No. of rats tested ([2]; sample 10 μg/kg i.p.): 0/10; Percentage amnesia ([2]; sample 10 μg/kg i.p.): 0%"
"CCCCCCCC/C=C\CCCCCCCC(=O)NC(CCSC)C(=O)N1CCCC1C=O (stereo not drawn) [SUAM 1214, oleoyl-Met-Pro-CHO] (Oleoyl-Met-Pro-aldehyde; configuration not given here)",0.6,considerably excellent anti-amnesic action,–,300,300,0/10,0,300,276.4,1/10,10,"Avoidance time 48 hrs. later [1]: 103.0 s; anti-amnesic action (in words) [2, 6]: no remarkable effect; anti-amnesic action (in words) [2, 5]: remarkable anti-amnesic action; Avoidance time 24 hrs. later ([2]; sample 10 μg/kg i.p.): 300 s; Avoidance time 48 hrs. later ([2]; sample 10 μg/kg i.p.): 300 s; No. of amnesic rats/No. of rats tested ([2]; sample 10 μg/kg i.p.): 0/10; Percentage amnesia ([2]; sample 10 μg/kg i.p.): 0%; Avoidance time 24 hrs. later ([2]; sample 250 μg/kg i.p.): 240.6 s; Avoidance time 48 hrs. later ([2]; sample 250 μg/kg i.p.): 226.0 s; No. of amnesic rats/No. of rats tested ([2]; sample 250 μg/kg i.p.): 2/10; Percentage amnesia ([2]; sample 250 μg/kg i.p.): 20%; Avoidance time 24 hrs. later ([2]; sample 1 mg/kg i.p.): 73.0 s; No. of amnesic rats/No. of rats tested ([2]; sample 1 mg/kg i.p.): 6/10; Percentage amnesia ([2]; sample 1 mg/kg i.p.): 60%"
"CCCCCCCC/C=C\CCCCCCCC(=O)NC(CCCCNC(=O)OCc1ccccc1)C(=O)N1CCCC1C=O (stereo not shown) [SUAM 1216, oleoyl-Lys(Z)-Pro-CHO] (Oleoyl-Lys(Cbz)-Pro-aldehyde; configuration not given here)",0.6,–,–,–,–,–,–,–,–,–,–,–
"CCCCCCCC/C=C\CCCCCCCC(=O)NC(CC(C)C)C(=O)N1CCCC1C=O (stereo not drawn) [SUAM 1140, Oleoyl-Leu-Pro-CHO] (Oleoyl-Leu-Pro-aldehyde; configuration not given here)",0.8,–,considerably excellent anti-amnesic action,300,300,0/5,0,300,300,0/5,0,"Avoidance time 48 hrs. later [1]: 103.0 s; anti-amnesic action (in words) [2, 6]: no remarkable effect; Avoidance time 24 hrs. later ([2]; sample 10 μg/kg i.p.): 185.0 s; Avoidance time 48 hrs. later ([2]; sample 10 μg/kg i.p.): 189.0 s; No. of amnesic rats/No. of rats tested ([2]; sample 10 μg/kg i.p.): 2/5; Percentage amnesia ([2]; sample 10 μg/kg i.p.): 40%; Avoidance time 24 hrs. later ([2]; sample 250 μg/kg i.p.): 263 s; Avoidance time 48 hrs. later ([2]; sample 250 μg/kg i.p.): 284 s; No. of amnesic rats/No. of rats tested ([2]; sample 250 μg/kg i.p.): 1/5; Percentage amnesia ([2]; sample 250 μg/kg i.p.): 20%; Avoidance time 24 hrs. later ([2]; sample 1 mg/kg i.p.): 73.0 s; No. of amnesic rats/No. of rats tested ([2]; sample 1 mg/kg i.p.): 3/5; Percentage amnesia ([2]; sample 1 mg/kg i.p.): 60%"
"CCCCCCCC/C=C\CCCCCCCC(=O)NC(C(=O)N1CCCC1C=O)C(C)C (stereo not drawn) [SUAM 1156, oleoyl-Val-Pro-CHO] (Oleoyl-Val-Pro-aldehyde; configuration not given here)",0.7,–,considerably excellent anti-amnesic action,–,–,–,–,300,276.4,1/10,10,"Avoidance time 48 hrs. later [1]: 119.8 s; anti-amnesic action (in words) [2, 6]: no remarkable effect; Avoidance time 24 hrs. later ([2]; sample 250 μg/kg i.p.): 240.6 s; Avoidance time 48 hrs. later ([2]; sample 250 μg/kg i.p.): 226.0 s; No. of amnesic rats/No. of rats tested ([2]; sample 250 μg/kg i.p.): 2/10; Percentage amnesia ([2]; sample 250 μg/kg i.p.): 20%; Avoidance time 24 hrs. later ([2]; sample 1 mg/kg i.p.): 184.0 s; No. of amnesic rats/No. of rats tested ([2]; sample 1 mg/kg i.p.): 5/10; Percentage amnesia ([2]; sample 1 mg/kg i.p.): 50%"
"CCCCCCCCCCCCCCCC(=O)NC(CC(C)C)C(=O)N1CCCC1C=O (stereo not drawn) [SUAM 1155, palmitoyl-Leu-Pro-CHO] (Palmitoyl-Leu-Pro-aldehyde; configuration not given here)",0.7,–,strong anti-amnesic action,–,–,–,–,300,300,0/10,0,–
"CCCCCCCC/C=C\CCCCCCCC(=O)NC(CCCC)C(=O)N1CCCC1C=O (stereo not drawn) [SUAM 1166, oleoyl-norLeu-Pro-CHO] (Oleoyl-[Nle]-Pro-aldehyde; configuration not given here)",0.8,strong anti-amnesic action,–,300,300,0/10,0,–,–,–,–,–
"CCCCCCCCCCCCCCCCCC(=O)NC(CC(C)C)C(=O)N1CCCC1C=O (stereo not drawn) [SUAM 1154, stearoyl-Leu-Pro-CHO] (Stearoyl-Leu-Pro-aldehyde; configuration not given here)",1.0,–,strong anti-amnesic action,–,–,–,–,300,300,0/10,0,–
"CCCCCCCC/C=C\CCCCCCCC(=O)NC(CCC=O)C(=O)N1CCCC1C=O (stereo not shown) [SUAM 1217, oleoyl-Glu(CHO)-Pro-CHO]",0.3,–,–,–,–,–,–,–,–,–,–,–
